The values below come from DBAASP.

Values after ≈ are worked out from the molar mass of the structure shown.

Test systems include Bacillus cereus; Escherichia coli; Candida albicans; Staphylococcus aureus; Bacillus subtilis; Klebsiella pneumoniae.
Holding throughout (assay): ≥ marks a high value that may be exact or a test limit, other limits are often not marked, values filed in µg/mL are converted to µM
Test [1] concerns Candida albicans ATCC 90028.
The subject of test [2] is Escherichia coli ATCC 25922.
The subject of test [3] is Staphylococcus aureus ATCC 25923.
Test [4] has as its system Pseudomonas aeruginosa ATCC 27853.
Test [5] concerns Staphylococcus aureus ATCC 29213.
The subject of test [6] is Bacillus subtilis ATCC 6633.
For test [7], the system named is Klebsiella pneumoniae ATCC 700603.
For test [8], the system named is Staphylococcus epidermidis ATCC 12228.
For test [9], the system named is Candida albicans ATCC 10231.

As to `CSCC[C@H](NC(=O)[C@H](CO)NC(=O)[C@H](Cc1ccccc1)NC(=O)[C@@H](NC(=O)[C@H](CO)NC(=O)[C@@H]1CCCN1C(=O)[C@@H](NC(=O)[C@@H](NC(=O)[C@H](CCCCN)NC(=O)[C@H](CO)NC(=O)[C@H](C)NC(=O)[C@H](CC(C)C)NC(=O)[C@H](CO)NC(=O)[C@H](Cc1ccccc1)NC(=O)[C@H](CC(C)C)NC(=O)[C@H](C)N)C(C)C)C(C)C)C(C)C)C(=O)N[C@H](C(=O)N[C@H](C(=O)N[C@@H](CCCCN)C(=O)N[C@@H](CCCCN)C(=O)O)[C@@H](C)O)C(C)C` [ALFSLASKVVPSVFSMVTKK], the figures for the MIC against Bacillus cereus and against Escherichia coli were at least 120 µM and above 120 µM, respectively.
Consider `CC[C@H](C)[C@H](NC(=O)[C@H](C)NC(=O)CNC(=O)[C@H](CC(C)C)NC(=O)[C@@H](N)Cc1ccccc1)C(=O)N[C@@H](C)C(=O)NCC(=O)N[C@H](C(=O)N[C@@H](C)C(=O)N[C@@H](C)C(=O)N[C@@H](CCCCN)C(=O)N[C@@H](Cc1ccccc1)C(=O)N[C@@H](CC(C)C)C(=O)N1CCC[C@H]1C(=O)N[C@@H](CCCCN)C(=O)N[C@H](C(=O)N[C@@H](Cc1ccccc1)C(=O)N[C@H]1CSSC[C@@H](C(=O)O)NC(=O)[C@H](CCCCN)NC(=O)[C@H](CCCCN)NC(=O)[C@H]([C@@H](C)O)NC(=O)[C@H]([C@@H](C)CC)NC(=O)[C@H](Cc2ccccc2)NC1=O)C(C)C)C(C)C` [FLGAIAGVAAKFLPKVFCFITKKC], for which the results for the MIC in test [1], in test [2] and in [3] were 3 µM (≈ 7.71 µg/mL), 25 µM (≈ 64.3 µg/mL) and 3 µM (≈ 7.71 µg/mL), respectively.
As for `CC[C@H](C)[C@H](NC(=O)CNC(=O)[C@H](CCCCN)NC(=O)[C@@H](NC(=O)[C@H](CC(C)C)NC(=O)[C@H](CO)NC(=O)CNC(=O)[C@H](CC(C)C)NC(=O)[C@H](CC(=O)O)NC(=O)[C@H](C)NC(=O)[C@H](CCCCN)NC(=O)[C@H](CC(C)C)NC(=O)[C@@H](NC(=O)[C@H](CCC(=O)O)NC(=O)[C@H](CCCCN)NC(=O)[C@H](Cc1ccccc1)NC(=O)CN)C(C)C)C(C)C)C(=O)N[C@@H](C)C(=O)N[C@@H](C)C(=O)N[C@@H](Cc1cnc[nH]1)C(=O)N[C@H](C(=O)N[C@@H](C)C(=O)N[C@@H](CC(N)=O)C(N)=O)C(C)C` [GFKEVLKADLGSLVKGIAAHVAN], the MIC – broadly, the least concentration at which growth counts as inhibited – was above 400 µM in the test with Candida albicans, 214 µM (≈ 500 µg/mL) in the test with Escherichia coli and 214 µM (≈ 500 µg/mL) in the test with Staphylococcus aureus.
As to `CC(C)C[C@H](NC(=O)[C@H](C)NC(=O)[C@H](CC(C)C)NC(=O)[C@H](CC(N)=O)NC(=O)[C@H](CCCCN)NC(=O)[C@H](Cc1ccccc1)NC(=O)[C@@H](NC(=O)[C@H](CC(=O)O)NC(=O)[C@H](CC(C)C)NC(=O)[C@H](Cc1ccccc1)NC(=O)CN)[C@@H](C)O)C(=O)N[C@@H](CC(N)=O)C(=O)N[C@@H](C)C(=O)N[C@@H](C)C(=O)N[C@@H](CCCCN)C(=O)N[C@@H](CO)C(=O)N[C@@H](C)C(=O)NCC(=O)N[C@H](C(=O)N[C@@H](CO)C(=O)N[C@H](C(=O)N[C@@H](CC(C)C)C(=O)N[C@@H](CC(N)=O)C(=O)N[C@@H](CO)C(=O)N[C@@H](CC(C)C)C(=O)N[C@@H](CO)C(=O)N[C@H]1CSSC[C@@H](C(=O)O)NC(=O)[C@H]([C@@H](C)O)NC(=O)[C@H](CCCCN)NC(=O)[C@H](Cc2ccccc2)NC(=O)[C@H](CC(C)C)NC(=O)[C@H](CCCCN)NC1=O)C(C)C)C(C)C` [GFLDTFKNLALNAAKSAGVSVLNSLSCKLFKTC], the minimum inhibitory concentration (MIC) in the test on Bacillus subtilis was 2.36 µM (≈ 8.16 µg/mL); in the test on Candida albicans, 1.18 µM (≈ 4.08 µg/mL); in the test on Escherichia coli, 4.71 µM (≈ 16.3 µg/mL); with Staphylococcus aureus it was 2.36 µM (≈ 8.16 µg/mL).
In the case of `CC[C@H](C)[C@H](NC(=O)[C@H](CC(C)C)NC(=O)[C@H](Cc1cnc[nH]1)NC(=O)[C@@H](NC(=O)[C@@H](NC(=O)[C@H](C)NC(=O)CNC(=O)[C@H](CC(C)C)NC(=O)[C@H](C)NC(=O)[C@H](C)NC(=O)[C@H](CCCCN)NC(=O)CNC(=O)[C@@H](NC(=O)CNC(=O)[C@H](CCCCN)NC(=O)[C@H](CC(C)C)NC(=O)[C@@H](NC(=O)[C@H](CC(=O)O)NC(=O)[C@H](CC(C)C)NC(=O)[C@H](Cc1ccccc1)NC(=O)CN)C(C)C)C(C)C)C(C)C)[C@@H](C)O)C(=O)N[C@@H](CC(N)=O)C(=O)N[C@@H](CCC(N)=O)C(=O)NCC(=O)N[C@@H](CCC(=O)O)C(=O)N[C@@H](CCC(N)=O)C(N)=O` [GFLDVLKGVGKAALGAVTHLINQGEQ], the minimum inhibitory concentration (MIC) came to 55.1 µM (≈ 145 µg/mL) in the test with Candida albicans, 27.5 µM (≈ 72.5 µg/mL) in the test on Escherichia coli and 27.5 µM (≈ 72.5 µg/mL) against Staphylococcus aureus.
Turning to `CC[C@H](C)[C@H](NC(=O)[C@H](CC(C)C)NC(=O)[C@H](Cc1cnc[nH]1)NC(=O)[C@@H](NC(=O)[C@@H](NC(=O)[C@H](C)NC(=O)CNC(=O)[C@H](CC(C)C)NC(=O)[C@H](C)NC(=O)[C@H](C)NC(=O)[C@H](CCCCN)NC(=O)CNC(=O)[C@@H](NC(=O)CNC(=O)[C@H](CCCCN)NC(=O)[C@@H](NC(=O)[C@@H](NC(=O)[C@H](CC(=O)O)NC(=O)[C@H](CC(C)C)NC(=O)[C@H](Cc1ccccc1)NC(=O)CN)C(C)C)C(C)C)C(C)C)C(C)C)[C@@H](C)O)C(=O)N[C@@H](CC(N)=O)C(=O)N[C@@H](CCC(N)=O)C(=O)NCC(=O)N[C@@H](CCC(=O)O)C(=O)N[C@@H](CCC(N)=O)C(N)=O` [GFLDVVKGVGKAALGAVTHLINQGEQ], the MIC against Candida albicans stood at 222 µM (≈ 582 µg/mL); against Escherichia coli it was 55.5 µM (≈ 145 µg/mL); in the test on Staphylococcus aureus, 111 µM (≈ 291 µg/mL).
Regarding `CC[C@H](C)[C@H](NC(=O)[C@H](CCCN=C(N)N)NC(=O)[C@H](CCC(N)=O)NC(=O)[C@@H](NC(=O)[C@@H](NC(=O)[C@H](CCCN=C(N)N)NC(=O)[C@@H](N)CCCCN)[C@@H](C)CC)C(C)C)C(=O)N[C@@H](CCCCN)C(=O)N[C@@H](CC(=O)O)C(=O)N[C@@H](Cc1ccccc1)C(=O)N[C@@H](C)C(=O)N[C@@H](CCCN=C(N)N)C(=O)O` [KRIVQRIKDFAR], the MIC in test [1] was at least 40 µM; in test [2] it was 20 µM (≈ 30.6 µg/mL); in test [4], 40 µM (≈ 61.2 µg/mL); in [5], 40 µM (≈ 61.2 µg/mL).
Take `CC(=O)N[C@@H](CC(C)C)C(=O)N[C@@H](Cc1ccccc1)C(=O)N[C@@H](CCCCN)C(=O)N[C@@H](CCCCN)C(=O)N[C@@H](CC(N)=O)C(=O)N[C@@H](CCCCN)C(=O)N[C@@H](CC(C)C)C(=O)N[C@@H](Cc1c[nH]c2ccccc12)C(=O)N[C@@H](Cc1ccccc1)C(=O)N[C@@H](CCCCN)C(=O)N[C@@H](CO)C(=O)N[C@@H](CCCCN)C(=O)N[C@@H](CCCCN)C(=O)N[C@@H](Cc1c[nH]c2ccccc12)C(=O)N[C@@H](CC(C)C)C(N)=O` [LFKKNKLWFKSKKWL]: the minimal inhibitory concentration (MIC) was 6.4 µM (≈ 13 µg/mL) in test [6]; 50 µM (≈ 102 µg/mL) in [2]; 50 µM (≈ 102 µg/mL) in [7]; 50 µM (≈ 102 µg/mL) in test [4]; 50 µM (≈ 102 µg/mL) in test [3]; 25 µM (≈ 50.9 µg/mL) in test [8].
With `CC[C@H](C)[C@H](NC(=O)[C@H](CC(C)C)NC(=O)[C@H](CO)NC(=O)[C@@H]1CCCN1C(=O)[C@@H](NC(=O)[C@@H](NC(=O)[C@H](CCCCN)NC(=O)[C@H](CO)NC(=O)[C@H](C)NC(=O)[C@@H](NC(=O)[C@H](CO)NC(=O)[C@H](Cc1ccccc1)NC(=O)[C@@H](NC(=O)[C@@H](NC(=O)[C@@H]1CCCN1)C(C)C)C(C)C)C(C)C)C(C)C)C(C)C)C(=O)N[C@@H](CO)C(=O)N[C@@H](C)C(=O)N[C@@H](CC(C)C)C(=O)N[C@@H](CCCCN)C(=O)N[C@@H](CCCN=C(N)N)C(=O)O` [PVVFSVASKVVPSLISALKR], the minimal inhibitory concentration (MIC) is at least 122 µM in the test with Bacillus cereus and above 122 µM against Escherichia coli.
Turning to `CC[C@H](C)[C@H](NC(=O)CNC(=O)[C@H](CC(N)=O)NC(=O)[C@@H](NC(=O)[C@H](C)NC(=O)[C@H](CC(N)=O)NC(=O)[C@H](CC(C)C)NC(=O)[C@H](C)NC(=O)[C@H](C)NC(=O)[C@H](CCCN=C(N)N)NC(=O)CNC(=O)[C@H](C)NC(=O)[C@H](C)NC(=O)[C@H](C)NC(=O)[C@H](C)NC(=O)[C@H](CCSC)NC(=O)[C@H](CC(=O)O)NC(=O)[C@H](CCCCN)NC(=O)[C@@H](NC(=O)[C@H](CO)NC(=O)[C@H](CO)NC(=O)[C@H](CCCN=C(N)N)NC(=O)[C@H](CC(C)C)NC(=O)[C@@H](N)CO)[C@@H](C)CC)C(C)C)C(=O)N[C@H](C(=O)N[C@@H](CC(N)=O)C(=O)N1CCC[C@H]1C(N)=O)C(C)C` [SLRSSIKDMAAAAGRAALNAVNGIVNP], the minimum inhibitory concentration (MIC) against Candida albicans was 384 µM (≈ 1020 µg/mL); in [2], 96.1 µM (≈ 256 µg/mL); in the test on Klebsiella pneumoniae, above 189 µM; in test [3], above 192 µM.
As for `CC[C@H](C)[C@H](NC(=O)[C@H](CC(C)C)NC(=O)[C@H](CC(C)C)NC(=O)CNC(=O)[C@H](CCCCN)NC(=O)[C@H](CC(C)C)NC(=O)[C@H](CCCCN)NC(=O)[C@@H]1CCCN1C(=O)[C@H](CC(C)C)NC(=O)[C@H](CC(C)C)NC(=O)[C@H](CC(C)C)NC(=O)[C@H](CCCCN)NC(=O)[C@H](CC(C)C)NC(=O)[C@H](CC(C)C)NC(=O)[C@H](CCCCN)NC(=O)[C@@H](N)Cc1ccc(O)cc1)C(=O)N[C@@H](CCCCN)C(=O)N[C@@H](CC(C)C)C(N)=O` [YKLLKLLLPKLKGLLIKL], the values for the MIC in [9], in test [4] and in test [5] were 77.6 µM (≈ 164 µg/mL), 9.39 µM (≈ 19.8 µg/mL) and 2.32 µM (≈ 4.9 µg/mL), respectively.
